Several values for one entry are separate records, joined by “and”; a condition that tells them apart may be missing. Identical values can stand only once.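 Following 48 hours of exposure in 96-well plates, responses at five concentrations were used to interpolate endpoints linearly. The concentration for 50% growth inhibition is given as GI50. Definition used: TGI = concentration required for complete inhibition of growth.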
Tests used:
Experiment in all cases: NCI anticancer screen, dose series, 48 h
786-0 renal = tested on: 786-0 renal
A498 renal = tested on: A498 renal
CAKI-1 renal = tested on: CAKI-1 renal
COLO 205 colon = tested on: COLO 205 colon
HL-60(TB) leukemia = tested on: HL-60(TB) leukemia
HOP-92 NSCLC = tested on: HOP-92 NSCLC
LOX IMVI melanoma = tested on: LOX IMVI melanoma
MDA-MB-231 breast = tested on: MDA-MB-231 breast
SF-539 CNS = tested on: SF-539 CNS
UACC-257 melanoma = tested on: UACC-257 melanoma

Structure (SMILES)	GI50 (786-0 renal)	TGI (786-0 renal)	GI50 (A498 renal)	TGI (A498 renal)	GI50 (CAKI-1 renal)	TGI (CAKI-1 renal)	GI50 (COLO 205 colon)	TGI (COLO 205 colon)	GI50 (HL-60(TB) leukemia)	GI50 (HOP-92 NSCLC)	TGI (HOP-92 NSCLC)	GI50 (LOX IMVI melanoma)	TGI (LOX IMVI melanoma)	GI50 (MDA-MB-231 breast)	TGI (MDA-MB-231 breast)	GI50 (SF-539 CNS)	TGI (SF-539 CNS)	GI50 (UACC-257 melanoma)	TGI (UACC-257 melanoma)	TGI (HL-60(TB) leukemia)
CN(C)c1ccc(/C=C(\C#N)c2cc3ccccc3n2C)cc1	0.418 µM	> 100 µM	0.0412 µM	0.604 µM	0.0856 µM	> 100 µM	0.258 µM	1.72 µM	0.0931 µM	0.556 µM	> 23 µM	0.425 µM	> 100 µM	0.509 µM	> 100 µM	0.208 µM	0.713 µM	2.98 µM	> 100 µM	–
O=C(/C=C/c1ccccn1)c1ccccc1O	1.75 µM	3.14 µM	2.21 µM	7.14 µM	1.58 µM	3.21 µM	1.69 µM	3.3 µM	2.15 µM	2.1 µM	4.91 µM	1.85 µM	4.43 µM	2.8 µM	7.5 µM	2.05 µM	4.2 µM	2.22 µM	5.71 µM	6.15 µM
NC(=O)c1nnn(Cc2cc(Cl)c(C(=O)c3ccc(Cl)cc3)c(Cl)c2)c1N	> 9.09 µM	> 9.09 µM and 43 µM	> 9.09 µM	> 9.09 µM and 27.2 µM	–	25.5 µM	> 9.09 µM	> 9.09 µM and 48 µM	> 9.09 µM	> 9.09 µM	> 9.09 µM and 48.8 µM	> 9.09 µM	> 47.2 µM	–	> 52.8 µM	> 9.09 µM	> 9.09 µM and 46.5 µM	6.96 µM	> 9.09 µM and 33.7 µM	> 100 µM
O=C(Nc1ncc(Cc2ccccc2)s1)c1ccc2c(c1)OCCO2	0.0562 µM	> 100 µM	0.0123 µM	0.0687 µM	0.0406 µM	> 39 µM	0.0354 µM	1.08 µM	0.0416 µM	1.35 µM	> 100 µM	0.0546 µM	> 74.3 µM	0.0669 µM	4.03 µM	0.0283 µM	0.177 µM	3.87 µM	> 100 µM	> 100 µM
O=C(O)c1cc(N/C=C2\C(=O)c3ccccc3OC2O)ccc1O (stereo not drawn)	30.8 µg/mL	57.7 µg/mL	35.8 µg/mL	77.5 µg/mL	13 µg/mL	42 µg/mL	30.6 µg/mL	77.9 µg/mL	9.18 µg/mL	6.73 µg/mL	125 µg/mL	24.7 µg/mL	80.9 µg/mL	24.5 µg/mL	78.9 µg/mL	16.7 µg/mL	43.9 µg/mL	33.4 µg/mL	93.7 µg/mL	> 150 µg/mL
CN(C)CCCNC(=O)c1cc(NC(=O)CCNC(=O)c2ccc3c(c2)C(=O)c2ccccc2C3=O)cn1C	> 100 µM	> 100 µM	> 100 µM	> 100 µM	> 100 µM	> 100 µM	33.9 µM	> 100 µM	> 100 µM	58.9 µM	> 100 µM	–	–	> 100 µM	> 100 µM	> 100 µM	> 100 µM	21.8 µM	95.5 µM	> 100 µM
O=C(CSc1nc2ccc([N+](=O)[O-])cc2[nH]1)Nc1cccc(Cl)c1	3.02 µM	14.1 µM	1.43 µM	4.16 µM	2.3 µM	10.4 µM	1.92 µM	4.27 µM	3 µM	0.421 µM	3.3 µM	3.05 µM	13 µM	2.12 µM	6.55 µM	3.02 µM	11.7 µM	1.57 µM	6.68 µM	12.2 µM
COc1ccc(-c2cn(-c3ccc(Cl)cc3)c(=S)[nH]2)cc1OC	6.44 µM	91.7 µM	3.63 µM	53.9 µM	3.24 µM	> 100 µM	5.61 µM	> 100 µM	3.34 µM	0.333 µM	7.63 µM	1.52 µM	3.11 µM	1.5 µM	87 µM	29.9 µM	> 100 µM	> 100 µM	> 100 µM	9.32 µM
O=C(/C=C/C=C/c1ccccc1)c1ccc(Nc2nc(Nc3ccccc3)nc(Nc3ccccc3)n2)cc1	45.8 µM	> 100 µM	19.8 µM	> 100 µM	16.3 µM	> 100 µM	2.16 µM	> 100 µM	28.7 µM	0.241 µM	17.7 µM	> 100 µM	> 100 µM	34.7 µM	> 100 µM	61.6 µM	> 100 µM	> 100 µM	> 100 µM	> 100 µM
O=S(=O)(O)c1ccc(Cl)cc1.[Cd]	22.5 µM	50.2 µM	> 100 µM	> 100 µM	36 µM	> 100 µM	> 100 µM	> 100 µM	51.7 µM	> 100 µM	> 100 µM	> 100 µM	> 100 µM	> 100 µM	> 100 µM	13.7 µM	32.4 µM	29.6 µM	78.8 µM	> 100 µM
CCOC(=O)C1=C(N)Oc2c(sc3c(C)cccc23)C1c1ccc(Cl)cc1 (stereo not drawn)	4.05 µM	16.8 µM	1 µM	7.09 µM	1.2 µM	17.3 µM	3.46 µM	14.1 µM	2.56 µM	3.83 µM	20.7 µM	3.03 µM	13.7 µM	4.29 µM	17.4 µM	1.8 µM	5.57 µM	13.1 µM	30.4 µM	7.81 µM
COC1OCC(OS(=O)(=O)c2ccc(C)cc2)C(OC(=O)c2ccccc2)C1OC(=O)c1ccccc1 (stereo not drawn)	5.13 µM	> 100 µM	4.53 µM	90.9 µM	4.21 µM	> 100 µM	4.14 µM	> 100 µM	4.08 µM	2.48 µM	> 100 µM	5.05 µM	> 100 µM	7.02 µM	> 100 µM	5 µM	> 100 µM	–	–	> 100 µM
